Experimental data taken from patent US6172205A, “Synthetic process toward total synthesis of eleutherobin and its analogues and uses thereof” (The Trustees of Columbia in the City of New York, priority 1998, dated 2001).
“And” between values parts separate entries of the source, which are not always exact repeats. Equal values may be shown once. “Also recorded” adds a separate entry of the source. Read-outs that look alike come from different tables or passages of the source.

Tests used:
[1] = tested on: SKVBL (MDR variant of SKOV3); assay: Cytotoxicity by counting cells after 72 h, MDR variant cells; format: cell-based, human; conditions: for IC50: Homo sapiens, SK-OV-3, Ovarian Carcinoma SKOV3, Resistant (SKVBL), 72 h, mean of at least three independent experiments; for cross-resistance in SKVBL (in words): MDR1 expressing cells, high P-glycoprotein; for fold resistance relative to the parental cell line: SKVBL vs SKOV3
Experimental: (§1) Human non-small cell lung carcinoma cells, A549, were maintained in RPMI 1640 containing 10% fetal bovine serum and 1% penicillin-streptomycin (Gibco Laboratories, Grand Island N.Y.) at 37° C. in 7% CO2. The Taxol-resistant cell line A549-T12 was selected for resistance to Taxol and maintained in a final concentration of 12 nM drug (21). Human ovarian carcinoma cells SKOV3 and the MDR variant SKVBL (obtained from Dr. V. Ling) were maintained in α-mem plus ribonucleotides, deoxynucleotides, 15% fetal bovine serum and 1% penicillin-streptomycin (Gibco Laboratories) at 37° C. in 5% CO2. SKVBL cells were maintained in […] vinblastine (Sigma Chemical Co.).
(§2) Taxol-resistant and sensitive cell lines were seeded into 12-well plates at a density of 5×10^4 cells per well and allowed a period of 12 h for attachment prior to treatment. Cells were exposed to 10-fold serial dilutions of each compound (10^-10 to 10^-6 M) for 72 h. Cells were then trypsinized and counted (Coulter counter model ZF0031, Coulter Corp., Miami, Fla.). The IC50 was determined by plotting cell number against log of the drug concentration and this was used to determine the concentration of compound resulting in 50% growth inhibition compared to untreated cells. Each cell line was assayed in a minimum of 3 independent experiments with each compound and the results expressed as the mean IC50.
(§3) The cytotoxic efficacy of eleutherobin and its derivatives (FIG. 6) was evaluated in two drug sensitive human cancer cell lines and their Taxol-resistant counterparts. The results are summarized in Table I in order of decreasing potency. […] The Taxol-resistant cell line SKVBL overexpresses high levels of P-glycoprotein (22). […] The only difference between the two agents is the enantiomeric relationship in the carbohydrate (2'-acetylarabinose) sector (FIG. 6). […] This cell line expressed high levels of MDR1 resulting in Taxol-resistance equal or greater than 1666 -fold compared to the Taxol-sensitive SKOV3 cell line.
(§4) ^a Cytotoxicity determined by counting cells after 72 h drug exposure.

[2] = tested on: tubulin / microtubule protein; assay: Tubulin polymerization by turbidity at 350 nm in the absence of GTP; format: biochemical, calf; conditions: 10 μM; for tubulin polymerization (in words): 37 °C, absence of GTP
Experimental: (§5) Eleutherobin and its derivatives were synthesized as described (18,19). Taxol was obtained from the Drug Development Branch, National Cancer Institute (Bethesda, Md.). All compounds were dissolved in dimethyl sulfoxide (Sigma Chemical Co., St. Louis, Mo.) at stock concentrations of 5 mM and stored at -20° C. All control samples contained an equal volume of DMSO. GTP was obtained from Sigma Chemical Co. And dissolved in sterile distilled water at a concentration of 10 mM and stored at -20° C. Microtubule protein was purified from calf brains by two cycles of temperature-dependent assembly and disassembly (20) and stored in liquid nitrogen prior to use. The anti-mouse β-tubulin monoclonal antibody T-4026 was obtained from Sigma Chemical Co.
The ability of each compound to polymerize tubulin was evaluated by recording the change in turbidity of microtubule protein at 350 nm for 80 min in a spectrophotometer (UVIKON, Research Instruments Int., SD, Calif.). One mg of purified microtubule protein was diluted in assembly buffer containing 0.1 M MES, 1 mM EGTA, 0.5 mM MgCl2 and 3 M glycerol, pH 6.6. All compounds were evaluated at a concentration of 10 μM at 37° C. […] Microtubule stability was assessed by the addition of 10 mM Ca^++. changes from t=0-10 min were used to calculate initial slopes from the linear portion of each curve. These values were used to calculate the activity of each compound (relative to the activity of Taxol which was assigned a value of 100%).
The polymerization activity of these compounds was also assessed by determining the slope of the linear portion of each curve at A350 nm (t=0-10 min), and expressing this relative to Taxol (which was assigned a value of 100% (FIG. 8). The order of activity of eleutherobin and derivatives using this method, corroborates the results obtained from cytotoxicity studies.

microtubule protein = assay: Stability of microtubules against Ca++-induced depolymerization; format: biochemical, calf; conditions: 10 mM CaCl2
Experimental: as §5
(§6) The ability of each compound to polymerize tubulin was evaluated by recording the change in turbidity of microtubule protein at 350 nm for 80 min in a spectrophotometer (UVIKON, Research Instruments Int., SD, Calif.). One mg of purified microtubule protein was diluted in assembly buffer containing 0.1 M MES, 1 mM EGTA, 0.5 mM MgCl2 and 3 M glycerol, pH 6.6. All compounds were evaluated at a concentration of 10 μM at 37° C. GTP was used at a final concentration of 1 mM. Microtubule stability was assessed by the addition of 10 mM Ca^++. changes from t=0-10 min were used to calculate initial slopes from the linear portion of each curve. These values were used to calculate the activity of each compound (relative to the activity of Taxol which was assigned a value of 100%).
The ability of each compound to polymerize and/or stabilize microtubules was assessed (FIG. 7). To investigate whether eleutherobin and its derivatives shared the microtubule stabilizing properties of Taxol, 10 mM CaCl2 was added to each sample after maximum microtubule polymerization occurred, and the effects on turbidity recorded spectrophotometrically. A positive control was included in which 1 mM GTP was used to confirm the ability of GTP-stabilized microtubules to undergo Ca^++ induced depolymerization.
The ability of this compound to stabilize microtubules formed in the presence of GTP was examined. After a period of 15 min, 10 mM Ca^++ was added and the change in turbidity recorded.

[3] = tested on: cellular microtubules, NIH 3T3 cells; assay: Microtubule bundle formation by immunofluorescence; format: cell-based; conditions: 2 μM, 5.5 h; for microtubule bundle formation (in words): 37 °C
Experimental: FIG. 9 immunofluorescence images NIH3T3 cells labeled with β-tubulin antibody following exposure to different drugs. A)DMSO; B)2 μM Taxol; C)2 μM eleutherobin; D)2 μM neo-eleutherobin; E)2 μM SKBII.294; F)2 μM SKBIII.13.
Illustrates the effects of eleutherobin and its derivatives on the morphology of cellular microtubules following exposure of cells to 2 μM of each compound for 5.5 h at 37° C. […] The number of micotic asters correlated with the extent of microtubule bundling in interphase cells.
(§7) NIH 3T3 cells were grown to subconfluency on glass converslips in 35 mm plastic petri dishes. Cells were exposed to 2 μM of Taxol and each of the experimental compounds for 5.5 h at 37° C., rinsed twice in PBS and extracted with 0.5% Triton-X-100 in microtubule stabilizing buffer (PEM) (100 mM PIPES, 2 mM EGTA and 2 mM MgCl2, pH 6.8) for 4 min. Following a wash in PEM, the cells were fixed for 40 min at room temperature in 3% formaldehyde in PEM followed by incubation in 0.1 M glycine in PBS for 10 min and washing (four times) in PEM containing 5 μM EGTA. Following blocking in 20% normal goat serum (NGS) for 30 min at room temperature, cells were incubated for 1 h at 37° C. with a 1:100 dilution of β-tubulin mAb diluted in 10% NGS, washed twice in 1% BSA, once in PBS and three times in 1% BSA. Cells were then incubated in a 1:200 dilution of the secondary fluorophore antibody, IndocarbocyanineCY3 (Jackson Immunoresearch Laboratories Inc., Pa.) in 20% NGS for 20 min at room temperature. Finally cells were washed three times in 1% BSA and the dried slides mounted in 30% glycerol in PBS containing […]-phenylene diamine (1 mg/ml). Fixed slides were examined using a Zeiss Axioskop microscope.

[4] = tested on: Human non-small cell lung carcinoma cells, A549; assay: Cytotoxicity by counting cells after 72 h, Taxol-sensitive cells; format: cell-based; conditions: for IC50: Homo sapiens
Experimental: Taxol-resistant and sensitive cell lines were seeded into 12-well plates at a density of 5×10^4 cells per well and allowed a period of 12 h for attachment prior to treatment. […] Cells were then trypsinized and counted (Coulter counter model ZF0031, Coulter Corp., Miami, Fla.).

[5] = Overall biological activity, all parameters tested
Experimental: as §2, §6, §7

P-glycoprotein = P-glycoprotein substrate behaviour inferred from resistance of SKVBL cells; format: cell-based, human
Experimental: as §1, §2, §3

[6] = tested on: Human ovarian carcinoma cells SKOV3; assay: Cytotoxicity by counting cells after 72 h, Taxol-sensitive cells; format: cell-based
Experimental: as §1, §2, §4

[7] = tested on: A549-T12 (Taxol-resistant A549); assay: Cytotoxicity by counting cells after 72 h, Taxol-resistant cells; format: cell-based, human; conditions: for fold resistance relative to the parental cell line: A549-T12 vs A549, 4320 min; for IC50: Homo sapiens, Lung Carcinoma A549, Resistant (A549-T12), 72 h, mean of at least three independent experiments; for cross-resistance in A549-T12 (in words): Taxol-resistant, not expressing P-glycoprotein
Experimental: as §1, §2, §3, §4

[8] = Solubility compared to eleutherobin; format: physicochemical
[9] = sensitive cell lines (A549, SKOV3)

Compound	IC50 [1]	cross-resistance in SKVBL (in words) [1]	microtubule polymerization activity relative to eleutherobin [2]	stabilization against Ca++-induced depolymerization (in words) (microtubule protein)	microtubule bundle formation (in words) [3]	IC50 ([4]; A549, 72 h)	biological activity (in words) [5]	P-glycoprotein substrate (in words) (P-glycoprotein)	IC50 ([6]; SK-OV-3, 72 h)	fold resistance relative to the parental cell line [7]	IC50 [7]	cross-resistance in A549-T12 (in words) [7]	fold resistance relative to the parental cell line [1]	cytotoxicity (in words) [4, 9]	further results
CO[C@]12C=C[C@](C)(O1)[C@@H](OC(=O)/C=C/c1cn(C)cn1)C[C@H]1C(C)=CC[C@H](C(C)C)[C@H]1C=C2CO[C@H]1OC[C@H](O)[C@H](O)[C@H]1OC(C)=O [Neo-Eleutherobin]	> 1000 nM	exhibited cross-resistance in an MDR1 expressing cell line; also recorded: demonstrated cross-resistance	69%	the microtubules formed also resisted Ca^++ -induced depolymerization	the extent of bundling was reduced	125 nM	less active than eleutherobin in all of the parameters examined	excellent substrates for P-glycoprotein	134 nM	1.2 fold	146 nM	neither eleutherobin nor neo-eleutherobin displayed cross-resistance; also recorded: neither of these compounds showed cross-resistance			multiple asters in mitotic cells ([3]; data not shown): also seen in eleutherobin and neo-eleutherobin-treated cells; fold less active / less cytotoxic than eleutherobin [4, 9]: 20 fold and 14-20 fold
CO[C@]12C=C[C@@H]3[C@@H](C(C)C)CC=C(C)[C@@H]3C[C@H](OC(=O)/C=C/c3cn(C)cn3)[C@](C)(C=C1)O2 [SKBII.296]	1350 nM	no cross resistance to SKVBL cells	54%		reduced bundle formation in cultured cells; also recorded: induced less bundle formation than neo-eleutherobin	400 nM		considerably less attractive for P-glycoprotein compared to eleutherobin and neo-eleutherobin	1630 nM	10 fold	4000 nM	considerable cross-resistance	0.8 fold	less cytotoxic than either eleutherobin or neo-eleutherobin	solubility (in words) [8]: reduced solubility compared to eleutherobin
CC(=O)O[C@H]1C(=O)[C@@]2(C)[C@H]([C@H](OC(=O)c3ccccc3)[C@]3(O)C[C@H](OC(=O)[C@H](O)[C@@H](NC(=O)c4ccccc4)c4ccccc4)C(C)=C1C3(C)C)[C@]1(OC(C)=O)CO[C@@H]1C[C@@H]2O [Taxol, reference compound]	> 5000 nM			stabilized microtubules against Ca^++ -induced depolymerization	identical to that seen in Taxol-treated cells	2 nM		excellent substrates for P-glycoprotein	3 nM	7 fold and 7.1 fold	14.2 nM		≥ 1666 fold		
CO[C@]12C=C[C@](C)(O1)[C@@H](O)C[C@H]1C(C)=CC[C@H](C(C)C)[C@H]1C=C2CO[C@@H]1OC[C@@H](O)[C@@H](O)[C@@H]1O [SKBIII.13]				unable to stabilize GTP-polymerized microtubules against Ca^++ induced depolymerization	a fine microtubule network without bundle formation		basically inactive by all parameters tested							its cytotoxicity is greatly reduced	tubulin polymerization (in words) [2]: inactive in tubulin polymerization assays; tubulin polymerization (in words) ([2]; listed as SKBII.13): forfeited the ability to polymerize microtubules; IC50 ([4]; Lung Carcinoma A549, Sensitive, 72 h, mean of at least three independent experiments, read-out: IC50): 4150 nM; biological activity (in words) ([5]; listed as SKBII.13): biologically inactive; IC50 ([6]; SK-OV-3, Ovarian Carcinoma SKOV3, Sensitive, 72 h, mean of at least three independent experiments, read-out: IC50): > 5000 nM
